Experimental findings from US9737493B2, “Compositions and methods for modulating DNMT1 inhibitor activity” (University of Louisville Research Foundation, Inc., priority 2012, dated 2017) are described below.

The subject of assay [1] is Hs27 cells. Nature of the assay: Alkaline comet assay. The assay is classed as cell-based, human. To be noted: Hs27, 72 h. The method, then: (§1) FIG. 11: XB05 Induces DNA Damage in Malignant Cells. (A) Alkaline comet assays for detection of DNA damage for cells treated as indicated for 72 h. TBHP was a positive control for oxidative DNA damage. Decreased DNA fluorescence in nucleoid comet heads (arrows) and increased smearing of DNA into comet tails (asterisks) is indicated. Scale bar, 400 μm. Data shown are representative of at least two individual experiments for each cell line. (B) Western blot analysis for γ-H2AX and GAPDH (loading control) in whole cell extracts from cells treated with vehicle, UV irradiation (800 μJ, positive control for DSBs), or XB05 (1 μM for U937, 2 μM for A549) after 24 h. Images shown are representative of three individual experiments in each cell line. (C) Flow cytometric detection of γ-H2AX in cells treated as described in part B. Bar graph represents mean+/−SEM for 3 individual experiments in each cell line. Statistical comparison indicated significant differences between vehicle and XB05-treated groups in both cell lines (*p≦0.05).
(§2) Comet Assays. Cells were washed once with ice cold PBS, harvested as described and re-suspended at 1×10^5 cells/mL in PBS. As a positive control, cells were incubated with 100 μM tert-butyl hydrogen peroxide (TBHP) for 30 mins (U937, A549) or 1 h (Hs27) at 4° C. prior to harvesting. Comet assays were performed using the CometAssay Kit (Trevigen, Gaithersburg, Md.) according to the manufacturer's instructions. Cells were visualized and digital images captured on an EVOSfI Digital Fluorescent Microscope equipped with a fluorescein light cube.

Assay [2] has as its system U937 cells. Nature of the assay: Alkaline comet assay. The assay is classed as cell-based, human. The note with it: U937, 72 h. The method, then: as §1, §2
In assay [3] the test system is A549 cells. Nature of the assay: Alkaline comet assay. The assay is classed as cell-based, human. To be noted: A549, 72 h. The method, then:
as §1, §2

The nature of assay [4]: DTNB assay for free sulfhydryls. The note with it: 5 mM XB05; 0.25 mM Cys or GSH, pH 8, 30 min, 37° C. As for the experimental part: FIG. 12: XB05 is Weakly Reactive with Thiols In Vitro: 0.25 mM Cysteine (Cys, top panel) or glutathione (GSH, bottom panel) were incubated with XB05, diethyl maleate (DEM), or maleimide at the indicated concentrations, or with an equivalent amount of vehicle (DMSO), for 30 min at 37° C. 5,5′-Dithiobis-2-nitrobenzoic acid (DTNB) assays were conducted as described in Methods. Absorbance for triplicate wells was determined at 412 nm. Points represent the mean and standard deviation for triplicate wells. Data shown are representative of two independent experiments.
Dithiobis-2-nitrobenzoic Acid (DTNB) Assay for Free Sulfhydryls. For each experiment, a 20× working solution of DTNB (2 mM DTNB, 50 mM sodium acetate in 100 mM Tris-HCl, pH 8.0) and 2× solutions of cysteine and GSH (0.5 mM in 100 mM Tris-HCl, pH 8.0) were freshly prepared. 10 mM stock solutions of XB05, diethyl maleate and maleimide were prepared in 100% DMSO, and subsequently serially diluted to 2× working solutions in 100 mM Tris-HCl, pH 8.0. 100 μl each of thiol compounds (final concentration 0.25 mM) and thiol-reactive compounds (final concentrations 0.05-5 mM) or vehicle control (DMSO) were added in duplicate to a 96-well plate and allowed to incubate at 37° C. for 30 minutes. […] Absorbance was read on a Biotek HT Synergy Plate reader (Winooski, Vt.) at 412 nm.

Assay [5] concerns Hs27 cells. Nature of the assay: Western blot for Nrf2 in nuclear extracts. The assay is classed as cell-based, human. To be noted: Hs27, 1 μM, 8 or 24 h. The method, then: (§3) FIG. 8: XB05 Modulates Cellular Stress Responses. (A) A luminescence-based assay for reduced glutathione (GSH) content in cells treated 24 h with XB05 (1 μM for U937 and Hs27, or 2 μM for A549), in the absence or presence of 5 mM GSH. Some cells were treated with buthionine sulfoximine (BSO, 200 μM) plus diethyl maleate (DEM, 1 mM) for 3 h as a positive control for GSH depletion. Bar graph indicates mean+/−SEM from three independent experiments. […] (C) Western blot for Nrf2 in nuclear extracts from cells treated as in part A for either 8 h or 24 h. Membranes were stripped and reprobed for Ku-70 as a loading control. (D) Western blot for phospho-eIF2α (Ser51), total eIF2-α, BiP/Grp78, and GAPDH (loading control) in whole cell extracts from cell lines treated as indicated for 24 h with concentrations of XB05 described in part A. Thapsigargin (TG, 2 μM) was used as a positive control for induction of endoplasmic reticulum (ER) stress.
(§4) Cell Extracts. […] Nuclear cells extracts were isolated using the NE-PER Nuclear and Cytoplasmic Extraction Kit (Thermo Scientific, Rockford, Ill.), per the manufacturer's protocol. For total cell extract, cells were lysed in RIPA buffer (Thermo Scientific) containing protease inhibitor cocktail III and phosphatase inhibitor cocktail (Calbiochem, Billerica, Mass.) for 5 min at 4° C., and then cleared by centrifugation at 16,000 g for 10 min at 4° C. All protein concentrations were determined using the DC Protein Assay™ kit (BioRad, Hercules, Calif.).
(§5) Western Blotting. […] Proteins were detected using the following primary antibody concentrations: PARP-1 (1:1000), cleaved caspase-3 (1:1000), γ-H2AX (Ser139) ([…]), phospho-eIF2α (Ser51) (1:1000), eIF2α (1:1000), Bip (1:1000), Nrf2 (1:1000), Ku-70 (1:1000) and GAPDH (1:1000). […] Where indicated, band intensities were quantified using the UN-SCAN-IT Gel digitizing software (Silk Scientific, Orem Utah) and normalized to vehicle control.
On the technique in general: A western blot detects proteins with antibodies after separation by electrophoresis.

The test system of assay [6] is U937 cells. Nature of the assay: Western blot for Nrf2 in nuclear extracts. The note with it: U937, 1 μM, 8 or 24 h. Type of assay: cell-based, human. The method, then:
as §3, §4, §5

For assay [7], the system named is A549 cells. Nature of the assay: Western blot for Nrf2 in nuclear extracts. Type of assay: cell-based, human. To be noted: A549, 2 μM, 8 or 24 h. As for the experimental part: as §3, §4, §5

The structures appear in SMILES notation.

Consider `CCCCCC(O)C#CC(F)(F)Br` (stereo not shown) [XB05], for which the “DNA damage (comet tails)” value is on record as “no evidence of DNA damage” in the assay with Hs27 cells [1], “comet tails” in the assay with U937 cells [2] and “comet tails” in the assay with A549 cells [3]. Further, the “depletion of free thiols” value in assay [4] was 40-50%. Moreover, the “nuclear Nrf2” value is recorded as “no change” in the assay with Hs27 cells [5], “decrease in nuclear Nrf2” in the assay on U937 cells [6] and “slight increase in nuclear levels of Nrf2” in the assay with A549 cells [7].
